In ChEMBL document CHEMBL4382291, “Aminopyrazole Carboxamide Bruton's Tyrosine Kinase Inhibitors. Irreversible to Reversible Covalent Reactive Group Tuning” (ACS Med Chem Lett, 2019):

How the values were obtained:
[1] = biological target: T1, Tyrosine-protein kinase BTK (Homo sapiens, UniProt Q06187)
Description: Inhibition of full-length human His-tagged BTK expressed in baculovirus expression system using FAM-Srctide peptide as substrate preincubated for 1 hr followed by substrate addition and measured after 1 hr by TR-FRET Lanthascreen assay

[2] = biological target: Tyrosine-protein kinase BTK (Homo sapiens, UniProt Q06187, C481S); experiment: Inhibition of full-length human C-terminal His6-tagged BTK C481S mutant expressed in Sf9 insect cells using FAM-Srctide peptide as substrate preincubated for 1 hr followed by substrate addition and measured after 1 hr by TR-FRET Lanthascreen assay
[3] = biological target: Epidermal growth factor receptor (Homo sapiens, UniProt P00533)
[4] = biological target: Proto-oncogene tyrosine-protein kinase Src (Homo sapiens, UniProt P12931); experiment: Inhibition of full-length recombinant human C-terminal His-tagged SRC cytoplasmic domain expressed in baculovirus expression system using FAM-Srctide peptide as substrate preincubated for 1 hr followed by substrate addition and measured after 1 hr by TR-FRET Lanthascreen assay
[5] = Permeability in RRCK cells; format: ADME, cell-based, Canis lupus familiaris, MDCKII-LE; details: dog, MDCK; read-out: permeability
[6] = biological target: T1, Tyrosine-protein kinase BTK; experiment: Inhibition of BTK in goat anti-human IgM F(ab')2-stimulated human whole blood assessed as suppression of CD69 expression on B cells pretreated for 1 hr followed by goat anti-human IgM F(ab')2-stimualtion and measured after 3 hrs by Fix/Lyse reagent based flow cytometry; format: tissue-based
[7] = Oral bioavailability in Wistar Han rat at 1 mg/kg administered via gavage by LC-MS/MS analysis; format: ADME, organism-based; details: in vivo
[8] = Clearance in human microsomes; format: ADME, Microsome
[9] = biological target: T1, Tyrosine-protein kinase BTK; remark: listed apart in the source
Description: Reversible inhibition of full-length human His-tagged BTK expressed in baculovirus expression system assessed as apparent dissociation half life by kinase tracer 236 based TR-FRET assay

[10] = biological target: T1, Tyrosine-protein kinase BTK; experiment: Inhibition of BTK in human whole blood assessed as reduction in anti-human IgE antibody-stimulated histamine release pretreated for 2 hrs followed by anti-human IgE antibody-stimulation and measured after 30 mins by ELISA; format: tissue-based
[11] = Cytotoxicity against human THLE cells; format: cell-based

Sequence of Proto-oncogene tyrosine-protein kinase Src (P12931 2-536 limits assumed): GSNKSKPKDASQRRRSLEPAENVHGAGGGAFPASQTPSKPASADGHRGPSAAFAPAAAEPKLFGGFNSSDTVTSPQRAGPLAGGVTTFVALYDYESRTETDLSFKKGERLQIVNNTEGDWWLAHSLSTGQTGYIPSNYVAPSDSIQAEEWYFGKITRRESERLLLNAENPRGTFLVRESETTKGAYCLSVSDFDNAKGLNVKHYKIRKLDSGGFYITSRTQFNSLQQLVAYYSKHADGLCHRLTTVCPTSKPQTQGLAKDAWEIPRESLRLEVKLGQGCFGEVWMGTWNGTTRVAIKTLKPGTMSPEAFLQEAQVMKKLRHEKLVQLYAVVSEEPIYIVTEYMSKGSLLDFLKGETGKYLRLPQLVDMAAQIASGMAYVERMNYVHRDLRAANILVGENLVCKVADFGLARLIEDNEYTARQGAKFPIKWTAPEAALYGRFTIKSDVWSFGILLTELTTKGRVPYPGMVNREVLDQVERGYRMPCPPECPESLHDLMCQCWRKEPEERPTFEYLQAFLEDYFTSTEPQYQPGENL
T1 sequence (Q06187 whole entry): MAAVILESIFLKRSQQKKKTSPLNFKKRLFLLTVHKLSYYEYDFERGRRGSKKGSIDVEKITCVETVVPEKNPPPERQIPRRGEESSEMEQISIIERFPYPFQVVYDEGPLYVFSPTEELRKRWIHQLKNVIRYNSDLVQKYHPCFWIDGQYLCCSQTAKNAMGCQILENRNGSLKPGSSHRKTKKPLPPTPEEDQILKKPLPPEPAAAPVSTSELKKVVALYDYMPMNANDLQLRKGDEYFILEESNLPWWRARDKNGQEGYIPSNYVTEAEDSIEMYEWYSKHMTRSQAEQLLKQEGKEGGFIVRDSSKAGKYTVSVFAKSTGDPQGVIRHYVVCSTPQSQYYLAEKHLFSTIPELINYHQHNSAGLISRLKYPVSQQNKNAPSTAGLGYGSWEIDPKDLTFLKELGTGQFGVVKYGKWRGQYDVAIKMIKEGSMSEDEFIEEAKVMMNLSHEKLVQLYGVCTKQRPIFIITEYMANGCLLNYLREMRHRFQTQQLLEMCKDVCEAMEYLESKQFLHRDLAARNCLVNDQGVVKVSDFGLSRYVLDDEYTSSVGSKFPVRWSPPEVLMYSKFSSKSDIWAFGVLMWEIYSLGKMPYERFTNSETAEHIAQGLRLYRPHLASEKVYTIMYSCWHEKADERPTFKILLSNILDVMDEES
Sequence of Epidermal growth factor receptor (P00533 whole entry, the tested form may be a part): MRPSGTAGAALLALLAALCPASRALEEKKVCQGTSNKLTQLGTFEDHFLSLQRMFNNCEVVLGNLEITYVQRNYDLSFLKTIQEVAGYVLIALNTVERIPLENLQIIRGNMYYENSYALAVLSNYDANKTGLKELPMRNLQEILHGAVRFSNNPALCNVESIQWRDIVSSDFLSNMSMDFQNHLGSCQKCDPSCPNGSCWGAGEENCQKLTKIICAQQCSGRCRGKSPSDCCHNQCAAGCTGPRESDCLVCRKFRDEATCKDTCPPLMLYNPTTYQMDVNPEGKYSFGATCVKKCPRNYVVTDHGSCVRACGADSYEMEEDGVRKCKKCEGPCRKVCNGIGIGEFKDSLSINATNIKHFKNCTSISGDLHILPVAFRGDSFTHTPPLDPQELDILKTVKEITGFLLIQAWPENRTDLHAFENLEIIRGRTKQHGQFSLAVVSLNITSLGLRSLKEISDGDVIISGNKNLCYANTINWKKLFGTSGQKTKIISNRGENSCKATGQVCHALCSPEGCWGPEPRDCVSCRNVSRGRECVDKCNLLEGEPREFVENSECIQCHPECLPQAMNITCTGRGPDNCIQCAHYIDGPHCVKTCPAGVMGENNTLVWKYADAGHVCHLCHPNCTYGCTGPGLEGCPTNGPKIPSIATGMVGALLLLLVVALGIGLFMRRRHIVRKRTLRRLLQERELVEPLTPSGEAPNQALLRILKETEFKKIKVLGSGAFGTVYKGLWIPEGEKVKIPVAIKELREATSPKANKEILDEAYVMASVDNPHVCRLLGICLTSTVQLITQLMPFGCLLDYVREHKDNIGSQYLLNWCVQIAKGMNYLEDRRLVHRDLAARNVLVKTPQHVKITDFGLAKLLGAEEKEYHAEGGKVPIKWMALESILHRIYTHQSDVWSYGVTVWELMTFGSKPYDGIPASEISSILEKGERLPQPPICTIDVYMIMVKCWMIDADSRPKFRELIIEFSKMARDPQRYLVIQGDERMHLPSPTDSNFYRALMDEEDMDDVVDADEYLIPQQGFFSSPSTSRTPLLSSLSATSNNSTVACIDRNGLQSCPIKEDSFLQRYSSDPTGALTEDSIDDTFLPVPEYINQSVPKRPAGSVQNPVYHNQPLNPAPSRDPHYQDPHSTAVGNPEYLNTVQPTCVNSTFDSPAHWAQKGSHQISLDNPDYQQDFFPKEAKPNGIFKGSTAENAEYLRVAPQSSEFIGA
Sequence of Tyrosine-protein kinase BTK (Homo sapiens, UniProt Q06187, C481S) (Q06187 2-659 C481S limits assumed): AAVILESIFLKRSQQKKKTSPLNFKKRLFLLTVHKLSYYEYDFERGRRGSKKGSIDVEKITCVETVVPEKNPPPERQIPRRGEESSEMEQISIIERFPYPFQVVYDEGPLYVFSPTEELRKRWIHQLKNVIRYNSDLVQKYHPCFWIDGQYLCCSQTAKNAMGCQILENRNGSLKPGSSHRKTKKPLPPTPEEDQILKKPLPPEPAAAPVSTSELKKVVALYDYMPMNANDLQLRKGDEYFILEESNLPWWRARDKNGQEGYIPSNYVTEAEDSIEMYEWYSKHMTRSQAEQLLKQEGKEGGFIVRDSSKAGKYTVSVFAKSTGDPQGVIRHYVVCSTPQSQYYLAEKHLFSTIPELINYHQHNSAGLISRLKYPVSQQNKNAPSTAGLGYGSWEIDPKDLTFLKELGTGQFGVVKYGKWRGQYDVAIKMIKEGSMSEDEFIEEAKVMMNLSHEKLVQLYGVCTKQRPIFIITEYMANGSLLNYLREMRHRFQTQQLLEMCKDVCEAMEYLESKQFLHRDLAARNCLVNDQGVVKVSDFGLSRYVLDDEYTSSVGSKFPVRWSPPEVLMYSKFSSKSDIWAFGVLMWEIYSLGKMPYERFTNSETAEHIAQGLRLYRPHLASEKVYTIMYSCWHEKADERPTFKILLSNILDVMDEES

**Q.** Which IC50 [1] does the source give for `C=C(C)C(=O)N1CCC[C@@H](n2nc(-c3ccc(Oc4ccc(F)cc4F)cc3)c(C(N)=O)c2N)C1` here?
**A.** 247 nM

**Q.** What about the IC50 [2] of the same compound?
**A.** 176 nM

**Q.** What about the IC50 [3] of the same compound?
**A.** > 20000 nM

**Q.** What about the IC50 [4] of the same compound?
**A.** 3.35 µM

**Q.** With `C=CC(=O)N1CCC[C@@H](n2nc(-c3ccc(Oc4ccc(Cl)cc4)cc3)c(C(N)=O)c2N)C1` as the compound, how does the IC50 [1] read?
**A.** 0.18 nM

**Q.** And the IC50 [3]?
**A.** 15 nM

**Q.** What about the IC50 [4] of the same compound?
**A.** 0.072 µM

**Q.** With `N#CN1CCC[C@@H](n2nc(-c3ccc(Oc4ccc(Cl)cc4)cc3)c(C(N)=O)c2N)C1` as the compound, how does the Papp [5] read?
**A.** > 10 ×10⁻⁶ cm/s

**Q.** And the IC50 [6]?
**A.** 46 nM

**Q.** And the IC50 [2]?
**A.** 48 nM

**Q.** What about the bioavailability [7] of the same compound?
**A.** 76 to 93%

**Q.** And the microsomal CLint [8]?
**A.** < 8 µL/min/mg

**Q.** And the IC50 [4]?
**A.** 1.4 µM

**Q.** And the T1/2 [9]?
**A.** 6 h

**Q.** And the IC50 [10]?
**A.** 21 nM

**Q.** What does the source list for `N#CN1CCC[C@@H](n2nc(-c3ccc(Oc4ncc(Cl)cc4F)cc3)c(C(N)=O)c2N)C1`?
**A.** Papp [5]: > 10 ×10⁻⁶ cm/s; IC50 [6]: 89 nM; IC50 [2]: 230 nM; bioavailability [7]: 76 to 93%; microsomal CLint [8]: < 8 µL/min/mg; IC50 [3]: > 20000 nM; IC50 [4]: > 20 µM; T1/2 [9]: 5 h; IC50 [10]: 50 nM

**Q.** With `NC(=O)c1c(-c2ccc(Oc3ccc(F)cc3F)cc2)nn([C@@H]2CCCN(C(=O)/C=C/CO)C2)c1N` as the compound, how does the IC50 [2] read?
**A.** 33 nM

**Q.** And the IC50 [11]?
**A.** 43 µM

**Q.** What about the IC50 [3] of the same compound?
**A.** 2910 nM

**Q.** What about the IC50 [4] of the same compound?
**A.** 4.61 µM

**Q.** What about the T1/2 [9] of the same compound?
**A.** > 24 h

**Q.** What does the source list for `C=C(F)C(=O)N1CCC[C@@H](n2nc(-c3ccc(Oc4ccc(F)cc4F)cc3)c(C(N)=O)c2N)C1`?
**A.** IC50 [2]: 170 nM; IC50 [11]: 67 µM; IC50 [3]: 570 nM; IC50 [4]: 6.48 µM; T1/2 [9]: > 24 h

**Q.** With `N#CN1CCC[C@@H](n2nc(-c3ccc(Oc4cccc(C(F)(F)F)n4)cc3)c(C(N)=O)c2N)C1` as the compound, how does the Papp [5] read?
**A.** > 10 ×10⁻⁶ cm/s

**Q.** What about the IC50 [6] of the same compound?
**A.** 33 nM

**Q.** And the IC50 [2]?
**A.** 36 nM

**Q.** And the bioavailability [7]?
**A.** 76 to 93%

**Q.** What about the microsomal CLint [8] of the same compound?
**A.** < 8 µL/min/mg

**Q.** And the IC50 [3]?
**A.** > 20000 nM

**Q.** What about the IC50 [4] of the same compound?
**A.** 14.4 µM

**Q.** What about the T1/2 [9] of the same compound?
**A.** 3 h

**Q.** What about the IC50 [10] of the same compound?
**A.** 42 nM

**Q.** With `CN(C)C/C=C/C(=O)N1CCC[C@@H](n2nc(-c3ccc(Oc4ccc(F)cc4F)cc3)c(C(N)=O)c2N)C1` as the compound, how does the IC50 [1] read?
**A.** 3.7 nM

**Q.** And the IC50 [2]?
**A.** 65 nM

**Q.** And the IC50 [11]?
**A.** 15 µM

**Q.** And the IC50 [3]?
**A.** 149 nM

**Q.** What about the IC50 [4] of the same compound?
**A.** 0.37 µM

**Q.** And the T1/2 [9]?
**A.** > 24 h

**Q.** What does the source list for `C/C=C/C(=O)N1CCC[C@@H](n2nc(-c3ccc(Oc4ccc(F)cc4F)cc3)c(C(N)=O)c2N)C1`?
**A.** IC50 [1]: 61 nM; IC50 [2]: 66 nM; IC50 [11]: 149 µM; IC50 [3]: > 20000 nM; IC50 [4]: 3.41 µM; T1/2 [9]: > 24 h

**Q.** For `C=CC(=O)N1CCC[C@@H](n2nc(-c3ccc(Oc4ccccc4)cc3)c3c(N)ncnc32)C1` [IBRUTINIB], which IC50 [11] is on record?
**A.** 11 µM

**Q.** Which IC50 [1] does the source give for `NC(=O)c1c(-c2ccc(Oc3ccc(F)cc3F)cc2)nn([C@@H]2CCCN(C(=O)/C=C/C(F)F)C2)c1N` here?
**A.** 0.41 nM

**Q.** And the IC50 [2]?
**A.** 115 nM

**Q.** What about the IC50 [11] of the same compound?
**A.** 8 µM

**Q.** What about the IC50 [4] of the same compound?
**A.** 5.84 µM

**Q.** And the T1/2 [9]?
**A.** > 24 h

**Q.** For `N#CN1CCC[C@@H](n2nc(-c3ccc(Oc4ccc(Cl)cn4)cc3)c(C(N)=O)c2N)C1`, which Papp [5] is on record?
**A.** > 10 ×10⁻⁶ cm/s

**Q.** And the IC50 [6]?
**A.** 45 nM

**Q.** What about the IC50 [1] of the same compound?
**A.** 6.2 nM

**Q.** What about the IC50 [2] of the same compound?
**A.** 92 nM

**Q.** And the bioavailability [7]?
**A.** 76 to 93%

**Q.** What about the microsomal CLint [8] of the same compound?
**A.** < 8 µL/min/mg

**Q.** And the IC50 [3]?
**A.** 15400 nM

**Q.** And the IC50 [4]?
**A.** > 20 µM

**Q.** And the T1/2 [9]?
**A.** 7 h

**Q.** And the IC50 [10]?
**A.** 95 nM

**Q.** Which results are given for `N#CN1CCC[C@@H](n2nc(-c3ccc(Oc4ccccc4)cc3)c(C(N)=O)c2N)C1`?
**A.** IC50 [1]: 0.37 nM; IC50 [2]: 2.8 nM; IC50 [3]: 1710 nM; IC50 [4]: 0.0042 µM; T1/2 [9]: 7 h

**Q.** For `C=CC(=O)N1CCC[C@@H](n2nc(-c3ccc(Oc4ccc(F)cc4F)cc3)c(C(N)=O)c2N)C1`, which IC50 [1] is on record?
**A.** 0.25 nM

**Q.** What about the IC50 [2] of the same compound?
**A.** 17 nM

**Q.** What about the IC50 [11] of the same compound?
**A.** 15 µM

**Q.** What about the IC50 [3] of the same compound?
**A.** 26 nM

**Q.** What about the IC50 [4] of the same compound?
**A.** 4.03 µM

**Q.** And the T1/2 [9]?
**A.** > 24 h

**Q.** What does the source list for `NC(=O)c1c(-c2ccc(Oc3ccc(F)cc3F)cc2)nn([C@@H]2CCCN(C(=O)/C=C/CF)C2)c1N`?
**A.** IC50 [1]: 2.7 nM; IC50 [2]: 90 nM; IC50 [11]: 49 µM; IC50 [4]: 3.14 µM; T1/2 [9]: > 24 h

**Q.** Which Papp [5] does the source give for `N#CN1CCC[C@@H](n2nc(-c3ccc(Oc4ccc(F)cc4F)cc3)c(C(N)=O)c2N)C1` here?
**A.** > 10 ×10⁻⁶ cm/s

**Q.** What about the IC50 [6] of the same compound?
**A.** 53 nM

**Q.** What about the IC50 [1] of the same compound?
**A.** 1.5 nM

**Q.** What about the IC50 [2] of the same compound?
**A.** 43 nM

**Q.** What about the IC50 [11] of the same compound?
**A.** 137 µM

**Q.** What about the bioavailability [7] of the same compound?
**A.** 76 to 93%

**Q.** And the microsomal CLint [8]?
**A.** < 8 µL/min/mg

**Q.** What about the IC50 [3] of the same compound?
**A.** 16800 nM

**Q.** And the IC50 [4]?
**A.** 1.63 µM

**Q.** What about the T1/2 [9] of the same compound?
**A.** 6 h

**Q.** And the IC50 [10]?
**A.** 64 nM
